The record followed here is patent US10519177B2, “Heterocyclic compounds and uses thereof” (Plexxikon Inc., priority 2013, dated 2019).

Assay [1] concerns the target BRD4-BD12 (1-477) (Homo sapiens (Human), UniProt O60885). Briefly: Alphascreen binding assay BRD4-BD12. The settings on record: BRD4(1 2) H4; read-out: Biochemical activity (IC50 μM) BRD4(1 2) H4. The gist of the method: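 First, compound was preincubated 1 h at room temperature with the His-tagged BRD4 protein (BD1 44-164 or tandem BD12 1-477) and acetylated H4 peptide. Next, donor and acceptor beads were added at 7.5 μg/ml final. After 30 min, AlphaScreen emission was recorded.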
On the technique in general: Bead proximity is the source of the signal in Alpha formats.

Assay [2] relates to MV-4-11 cells. Kind of assay: Oncology cell growth assay MV-4-11 (CellTiter Glo). Format: cell-based. The conditions noted are these: Homo sapiens, MV4-11, 72 h; read-out: Cell activity (IC50 μM) MV-4-11 3d-Growth. The gist of the method:
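MV-4-11 AML cells (MLL-AF4), 3000 per well, exposed to 8-point 1:3 compound titration from 10 μM top concentration (0.2% DMSO) for 72 h. Viability by CellTiter Glo luminescence, normalized to DMSO controls; pIC50 from four-parameter curve fit.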

For assay [3], the system named is bromodomain. Kind of assay: at least one of the bromodomain cell assays of Example 57. Format: cell-based. The settings on record: at least one of the bromodomain cell assays described in Example 57; read-out: IC50 in at least one of the bromodomain cell assays.

Usually IC50 stands for the concentration needed to halve the response being measured. For the compound `Cc1noc(C)c1-c1cnc2c(-c3cnn(CC(F)(F)F)c3)cn(CC3(F)CC=C(F)CC3)c2c1` (stereo not drawn) [P-0356, 4-[1-[(1,4-difluorocyclohex-3-en-1-yl)methyl]-3-[1-(2,2,2-trifluoroethyl)pyrazol-4-yl]pyrrolo[3,2-b]pyridin-6-yl]-3,5-dimethyl-isoxazole], the half-maximal inhibitory concentration (IC50) was less than 1 µM in assay [1], less than 1 µM in assay [2] and less than 10 µM in assay [3].
On to `Cc1nnn(C)c1-c1cnc2c(-c3cnn(C(F)F)c3)cn(CC3CCC(F)(F)CC3)c2c1` [P-0357, 1-[(4,4-difluorocyclohexyl)methyl]-3-[1-(difluoromethyl)pyrazol-4-yl]-6-(3,5-dimethyltriazol-4-yl)pyrrolo[3,2-b]pyridine], for which the half-inhibitory concentration (IC50) in assay [1] is less than 1 µM; in assay [2], less than 1 µM; in assay [3] it was less than 10 µM.
For the compound `[2H]C([2H])(C1CCC(F)(F)CC1)n1ccc2ncc(-c3c(C)nnn3CC)cc21` [P-0360, 1-[dideuterio-(4,4-difluorocyclohexyl)methyl]-6-(3-ethyl-5-methyl-triazol-4-yl)pyrrolo[3,2-b]pyridine], the half-maximal inhibitory concentration (IC50) in assay [1] is 1 to 10 µM; in assay [2], 10 to 200 µM; in assay [3] it was less than 10 µM.
The matching figures for `Cc1noc(C)c1-c1cnc2c(-c3cnn(C(F)F)c3)cn(C(C)c3ccccn3)c2c1` (stereo not drawn) [P-0361, 4-[3-[1-(difluoromethyl)pyrazol-4-yl]-1-[1-(2-pyridyl)ethyl]pyrrolo[3,2-b]pyridin-6-yl]-3,5-dimethyl-isoxazole]: less than 1 µM, less than 1 µM and less than 10 µM.
The matching figures for `[2H]C([2H])(C1CCC(F)(F)CC1)n1cc(-c2cnn(C(=O)OC(C)(C)C)c2)c2ncc(-c3c(C)noc3C)cc21` [P-0362, tert-butyl 4-[1-[dideuterio-(4,4-difluorocyclohexyl)methyl]-6-(3,5-dimethylisoxazol-4-yl)pyrrolo[3,2-b]pyridin-3-yl]pyrazole-1-carboxylate]: less than 1 µM, less than 1 µM and less than 10 µM.
The matching figures for `[2H]C([2H])(C1CCC(F)(F)CC1)n1cc(-c2ccc(C(=O)O)cc2)c2ncc(-c3c(C)noc3C)cc21` [P-0363, 4-[1-[dideuterio-(4,4-difluorocyclohexyl)methyl]-6-(3,5-dimethylisoxazol-4-yl)pyrrolo[3,2-b]pyridin-3-yl]benzoic acid]: less than 1 µM, less than 1 µM and less than 10 µM.
For the compound `[2H]C([2H])(C1CCC(F)(F)CC1)n1cc(-c2cnc(N)cn2)c2ncc(-c3c(C)noc3C)cc21` [P-0364, 5-[1-[dideuterio-(4,4-difluorocyclohexyl)methyl]-6-(3,5-dimethylisoxazol-4-yl)pyrrolo[3,2-b]pyridin-3-yl]pyrazin-2-amine], the values for the half-maximal inhibitory concentration (IC50) in assay [1], in assay [2] and in assay [3] were less than 1 µM, less than 1 µM and less than 10 µM, respectively.
Consider `Cc1noc(C)c1-c1cnc2c(-c3cnn(CC(F)(F)F)c3)cn(Cc3ccc(Cl)cc3)c2c1` [P-0365, 4-[1-[(4-chlorophenyl)methyl]-3-[1-(2,2,2-trifluoroethyl)pyrazol-4-yl]pyrrolo[3,2-b]pyridin-6-yl]-3,5-dimethyl-isoxazole], for which the figures for the IC50 in assay [1], in assay [2] and in assay [3] were less than 1 µM, less than 1 µM and less than 10 µM, respectively.
As to `Cc1noc(C)c1-c1cnc2c(-c3cnn(CC(F)(F)F)c3)cn(Cc3ccc(F)cc3)c2c1` [P-0366, 4-[1-[(4-fluorophenyl)methyl]-3-[l-(2,2,2-trifluoroethyl)pyrazol-4-yl]pyrrolo[3,2-b]pyridin-6-yl]-3,5-dimethyl-isoxazole], the IC50 in assay [1] was less than 1 µM; in assay [2], less than 1 µM; in assay [3] it was less than 10 µM.
As to `Cc1noc(C)c1-c1cnc2c(-c3ccc(C(=O)O)cc3)cn(CC3(F)CCCCC3)c2c1` [P-0367, 4-[6-(3,5-dimethylisoxazol-4-yl)-1-[(1-fluorocyclohexyl)methyl]pyrrolo[3,2-b]pyridin-3-yl]benzoic acid], the IC50 in assay [1] was less than 1 µM; in assay [2], less than 1 µM; in assay [3], less than 10 µM.
As for `Cc1onc(N)c1-c1cnc2c(-c3cnn(CC(F)(F)F)c3)cn(CC3CCC(F)(F)CC3)c2c1` [P-0368, 4-[1-[(4,4-difluorocyclohexyl)methyl]-3-[1-(2,2,2-trifluoroethyl)pyrazol-4-yl]pyrrolo[3,2-b]pyridin-6-yl]-5-methyl-isoxazol-3-amine], the half-maximal inhibitory concentration (IC50) is less than 1 µM in assay [1], less than 1 µM in assay [2] and less than 10 µM in assay [3].
With `Cc1nnn(C)c1-c1cnc2c(-c3ccc(C(=O)O)cc3)cn(CC3(F)CCC(F)(F)CC3)c2c1` [P-0373, 4-[6-(3,5-dimethyltriazol-4-yl)-1-[(1,4,4-trifluorocyclohexyl)methyl]pyrrolo[3,2-b]pyridin-3-yl]benzoic acid], the IC50 in assay [1] is less than 1 µM; in assay [2], less than 1 µM; in assay [3] it was less than 10 µM.
In the case of `Cc1noc(C)c1-c1cnc2c(-c3ccc(C(=O)OC(C)(C)C)cc3)cn(S(=O)(=O)c3ccccc3)c2c1` [P-0374, tert-butyl 4-[1-(benzenesulfonyl)-6-(3,5-dimethylisoxazol-4-yl)pyrrolo[3,2-b]pyridin-3-yl]benzoate], the IC50 in assay [1] is 1 to 10 µM; in assay [2], 10 to 200 µM; in assay [3], less than 10 µM.
The like results for `Cc1noc(C)c1-c1cnc2c(-c3ccc(C(=O)O)cc3)cn(Cc3ccccc3)c2c1` [P-0375, 4-[1-benzyl-6-(3,5-dimethylisoxazol-4-yl)pyrrolo[3,2-b]pyridin-3-yl]benzoic acid] were, in that order, less than 1 µM, less than 1 µM and less than 10 µM.
The like results for `Cc1noc(C)c1-c1cnc2c(-c3cnn(CC(F)(F)F)c3)cn(Cc3ccccn3)c2c1` [P-0376, 3,5-dimethyl-4-[1-(2-pyridylmethyl)-3-[1-(2,2,2-trifluoroethyl)pyrazol-4-yl]pyrrolo[3,2-b]pyridin-6-yl]isoxazole] were, in that order, less than 1 µM, less than 1 µM and less than 10 µM.
Take `Cc1nnn(C)c1-c1cnc2c(-c3ccc(C(=O)O)cc3)cn(CC3CCC(F)(F)CC3)c2c1` [P-0377, 4-[1-[(4,4-difluorocyclohexyl)methyl]-6-(3,5-dimethyltriazol-4-yl)pyrrolo[3,2-b]pyridin-3-yl]benzoic acid]: the half-inhibitory concentration (IC50) in assay [1] was less than 1 µM; in assay [2] it was less than 1 µM; in assay [3], less than 10 µM.
For `CNS(=O)(=O)c1ccc(-c2cn(CC3(F)CCCCC3)c3cc(-c4c(C)noc4C)cnc23)cc1` [P-0378, 4-[6-(3,5-dimethylisoxazol-4-yl)-1-[(1-fluorocyclohexyl)methyl]pyrrolo[3,2-b]pyridin-3-yl]-N-methyl-benzenesulfonamide], the half-inhibitory concentration (IC50) in assay [1] was less than 1 µM; in assay [2], less than 1 µM; in assay [3], less than 10 µM.
Regarding `Cc1noc(C)c1-c1cnc2c(-c3ccc(S(N)(=O)=O)cc3)cn(CC3(F)CCCCC3)c2c1` [P-0379, 4-[6-(3,5-dimethylisoxazol-4-yl)-1-[(1-fluorocyclohexyl)methyl]pyrrolo[3,2-b]pyridin-3-yl]benzenesulfonamide], the IC50 in assay [1] was less than 1 µM; in assay [2], less than 1 µM; in assay [3], less than 10 µM.
Consider `Cc1noc(C)c1-c1cnc2c(-c3cnn(C)c3)cn(CC3(F)CCC(F)(F)CC3)c2c1` [P-0381, 3,5-dimethyl-4-[3-(1-methylpyrazol-4-yl)-1-[(1,4,4-trifluorocyclohexyl)methyl]pyrrolo[3,2-b]pyridin-6-yl]isoxazole], for which the IC50 in assay [1] was less than 1 µM; in assay [2] it was less than 1 µM; in assay [3], less than 10 µM.
For `Cc1noc(C)c1-c1cnc2c(-c3ccc(C(=O)O)cc3)cn(CC3(F)CCC(F)(F)CC3)c2c1` [P-0382, 4-[6-(3,5-dimethylisoxazol-4-yl)-1-[(1,4,4-trifluorocyclohexyl)methyl]pyrrolo[3,2-b]pyridin-3-yl]benzoic acid], the IC50 in assay [1] is less than 1 µM; in assay [2] it was less than 1 µM; in assay [3], less than 10 µM.
With `Cc1noc(C)c1-c1cnc2c(-c3ccc(CC(=O)O)cc3)cn(CC3(F)CCCCC3)c2c1` [P-0383, 2-[4-[6-(3,5-dimethylisoxazol-4-yl)-1-[(1-fluorocyclohexyl)methyl]pyrrolo[3,2-b]pyridin-3-yl]phenyl]acetic acid], the IC50 was less than 1 µM in assay [1], less than 1 µM in assay [2] and less than 10 µM in assay [3].
Regarding `Cc1noc(C)c1-c1cnc2c(-c3cccc(CC(=O)O)c3)cn(CC3(F)CCCCC3)c2c1` [P-0384, 2-[3-[6-(3,5-dimethylisoxazol-4-yl)-1-[(1-fluorocyclohexyl)methyl]pyrrolo[3,2-b]pyridin-3-yl]phenyl]acetic acid], the concentration for half-maximal inhibition (IC50) is less than 1 µM in assay [1], less than 1 µM in assay [2] and less than 10 µM in assay [3].
As to `Cc1noc(C)c1-c1cnc2c(-c3ccc(C4(C(=O)O)CC4)cc3)cn(CC3(F)CCCCC3)c2c1` [P-0385, 1-[4-[6-(3,5-dimethylisoxazol-4-yl)-1-[(1-fluorocyclohexyl)methyl]pyrrolo[3,2-b]pyridin-3-yl]phenyl]cyclopropanecarboxylic acid], the IC50 in assay [1] was less than 1 µM; in assay [2], less than 1 µM; in assay [3], less than 10 µM.
For `Cc1noc(C)c1-c1cnc2c(-c3cnn(CC(=O)O)c3)cn(CC3(F)CCC(F)(F)CC3)c2c1` [P-0386, 2-[4-[6-(3,5-dimethylisoxazol-4-yl)-1-[(1,4,4-trifluorocyclohexyl)methyl]pyrrolo[3,2-b]pyridin-3-yl]pyrazol-1-yl]acetic acid], the IC50 was less than 1 µM in assay [1], 10 to 200 µM in assay [2] and less than 10 µM in assay [3].
